# Measurements reported in patent publication US20180028507A1, “3-CARBAMOYLPHENYL-4-CARBOXAMIDE AND ISOPHTALAMIDE DERIVATIVES AS INHIBITORS OF THE WNT SIGNALLING PATHWAY” (Bayer Pharma Aktiengesellschaft, priority 2015, published 2018).
# What was measured:
# [1] = tested on: constitutive active colorectal cancer cell (CRC) Wnt pathway; assay: HCT116 TOPFlash cellular reporter assay (Super TopFlash vector, luciferase); assay type: cell-based; details: Homo sapiens, HCT-116; HCT116 Super TopFlash reporter cells, 36 hours incubation, dilution series 50 μM to 15 nM, luciferase expression
# Method: In order to discover and characterize small molecules which inhibit the constitutive active colorectal cancer cell (CRC) Wnt pathway, a cellular reporter assay was employed. The corresponding assay cell was generated by transfection of the colorectal cancer cell line HCT116 (ATCC, #CCL-247) with the Super TopFlash vector (Morin, Science 275, 1997, 1787-1790; Molenaar et al., Cell 86 (3), 1996, 391-399). The HCT116 cell line is cultivated at 37° C. and 5% CO2 in DMEM/F-12 (Life Technologies, #11320-074), supplemented with 2 mM glutamine, 20 mM HEPES, 1.4 mM pyruvate, 0.15% Na-bicarbonate and 10% foetal bovine serum (GIBCO, #10270), this cancer cell line is pathophysiological relevant since it carries a deletion of position S45 in the β-catenin gene, leading to constitutive active Wnt signaling. Stable transfectants were generated by cotransfection with pcDNA3 and selection of stable transfected cells with 1 mg/ml G418.
# (§1) In preparation of the assay, the two cell lines were plated 24 hours before at 10000 cells per well of a 384 micro titre plate (MTP) in 30 μL growth medium. Selective inhibitory activity for small molecules on the mutated Wnt pathway was determined after parallel incubation of both (TOP and FOP) HCT116 reporter cell lines with a compound dilution series from 50 μM to 15 nM in steps of 3.16-fold dilutions in CAFTY buffer (130 mM NaCl, 5 mM KCl, 20 mM HEPES, 1 mM MgCl2, 5 mM NaHCO3, pH 7.4) containing 2 mM Ca^2+ and 0.01% BSA. The compounds were thereby serially prediluted in 100% DMSO and thereafter in addition 50 fold into the CAFTY compound dilution buffer (described above). From this dilution 10 μL were added to the cells in 30 μL growth medium and incubated for 36 hours at 37° C. and 5% CO2.
# [2] = tested on: HCT116 cells cotransfected with the FOP control vector (non-functional TCF elements); assay: HCT116 FOPFlash control reporter assay (FOP control vector, luciferase); assay type: cell-based; details: Homo sapiens, HCT-116, 36 hours incubation, dilution series 50 μM to 15 nM, luciferase expression
# Method: In a parallel approach, HCT116 cells were cotransfected with the FOP control vector and pcDNA3. The FOP vector is identical to the TOP construct, but it contains instead of functional TCF elements a randomized, non-functional sequence. For this transfection a stable transfected cell line was generated as well.
# as §1
SMILES,IC50 [1] [nM],IC50 [2] [nM]
"CC(C)(C)OC(=O)Nc1ccc(CNC(=O)c2cc(C(=O)Nc3ccc(-c4ccccc4F)nc3)ccc2OC(F)(F)F)cn1 [Example 48, tert-butyl [5-({[5-{[6-(2-fluorophenyl)pyridin-3-yl]carbamoyl}-2-(trifluoromethoxy)benzoyl]amino}methyl)pyridin-2-yl]carbamate]",2050,37000
"COc1ccc(C(=O)Nc2ccc(-c3ccccc3)cc2)cc1C(=O)Nc1ccnc(C)c1 [Example 12, N^1-(biphenyl-4-yl)-4-methoxy-N^3-(2-methylpyridin-4-yl)isophthalamide]",635,13500
"COc1cnccc1NC(=O)c1cc(C(=O)Nc2ccc(-c3ccccc3)cc2)ccc1OC(F)(F)F [Example 23, N^1-(biphenyl-4-yl)-N^3-(3-methoxypyridin-4-yl)-4-(trifluoromethoxy)isophthalamide]",243,≥ 50000
